The subject of data set [1] is K562 human chronic myelogenous leukaemia cell line. The experiment in a line: Test (a): growth inhibitory activity, MTT assay. As to conditions: 120 h, K562 cells, 5 days incubation, read-out: IC50 - Assay (a), concentration to inhibit 50% cell proliferation. The data set is classed as cell-based. The method, then: The compounds of the present invention were tested in test (a) for growth inhibitory activity (IC50) against the K562 human chronic myelogenous leukaemia cell line using a MTT assay generally as described in Tada, H., Shiho, O., Kuroshima, K., Koyama, M., Tsukamoto, K., J. Immunol. Methods 1986, 93, 157 and Edmondson, J. M., Armstrong, L. S., Martinez, A. O., J. Tissue Culture Methods 1988, 11, 15. Cells were cultured in Roswell Park Memorial Institute (RPMI) medium, free of antibiotics and containing L-glutamine ([…]), supplemented with 10% foetal calf serum. A single suspension of the K562 cell line was tested from an exponentially growing culture. The cells were counted using a haemocytometer, and diluted to 5×10^3/ml.
A compound of the present invention was dissolved in dimethylsulfoxide (DMSO) at a concentration of 50 μM and 4 μl of the DMSO solution was added to the cell suspension (4 ml). 1 ml of this solution was added to a further 1 ml of cell solution in a neighbouring tube, giving a compound half that of the initial dilution. The dilutions were continued in the same manner affording seven samples at different concentrations. One cell solution was left compound free as a control. Treated cells (200 μl) were pipetted in triplicate into a 96-well plate and incubated at 37° C. in a 5% CO2 in air atmosphere for 5 days. After this time, the plate was removed from the incubator and a solution of (3-(4,5-dimethylthiazol-2-yl)-2,5-diphenyltetrazolium bromide (MTT) (50 μl, 3 mg/ml in phosphate buffered saline (PBS)) was added to each well. After a further 3 hour incubation period under the same conditions, the medium was carefully removed from each well by suction and the resulting formazan precipitate was dissolved in DMSO (200 μl). The optical density of each well was then read (540 nm) using a Titretek Multiscan MCC/340 platereader. After processing and analysis through the application of an ‘in-house’ software package, the results obtained enabled the calculation of the drug dose required to inhibit cellular growth by 50% (GI50 or IC50 value).
On the technique in general: Tetrazolium dyes change colour on reduction, which living cells bring about.

Data set [2] concerns tubulin. The experiment in a line: Test (b): inhibition of tubulin assembly. The format is biochemical. Conditions: absorbance at 350 nm over 20 minutes, 37° C.; read-out: IC50 - Assay (b), concentration for 50% inhibition of tubulin assembly. The method, then: The compounds of the present invention were also tested in assay (b) for their ability to inhibit tubulin assembly generally as described in McGown and Fox, “Structural and biochemical comparison of the anti-mitotic agents colchicine, combretastatin A-4 and amphethinile” Anti-Cancer Drug Design, 3, 249, 1989.
Samples were prepared in quartz cuvettes at 0° C. and contained 2-morpholinoethanesulfonic acid (MES) buffer (740 μl, 0.1 M MES, 1 mM ethylene glycol tetraacetic acid (EGTA), 0.5 mM MgCl2, pH 6.6), a compound of the present invention (10 μl, 1 mM in DMSO), tubulin (150 μl, 1/4 dilution of neat tubulin in MES buffer) and GTP (100 μl, 10 mM). The overall concentration of the compound in solution was therefore 10 μM. The cell was mixed well, dried and immediately placed in a Varian Cary 1 UV/Visible spectrophotometer, preheated to 37° C., along with a control sample containing MES buffer (740 μl), guanosine triphosphate (GTP) (100 μl, 10 mM), tubulin (150 μl, concentration as before) and DMSO (10 μl). The absorbance at 350 nm was recorded over a period of 20 minutes. The results were compared with the untreated control experiment to assess the relative degree of change in optical density. If assembly was less than 50% of that of the control, the experiment was repeated using decreasing concentrations (from 1 mM) of the compound in order to determine the activity.

Data set [3] concerns DLD-1 tumours (colon carcinomas). The experiment in a line: Test (c): in vivo functional vasculature study with Hoechst 33342. Details: species or system mice. Conditions: single intraperitoneal dose at believed maximum tolerated dose. The method, then:
The compounds of the present invention were also tested in in vivo functional vasculature studies using the fluorescent DNA-binding compound Hoechst 33342 (H33342)
Twenty-eight mice were used for test (c). The tumours used were colon carcinomas (DLD-1). Once the tumours reached a suitable size, mice were randomised and assigned into 10 groups with one control group and 3 groups for each compound to be tested (referred to as a “drug group”). Mice in a drug group were treated intraperitoneally with a single dose of a compound of the present invention at a dose believed to be the maximum tolerated dose for each compound being tested (the maximum tolerated dose being measured by dosing mice with increasing amounts of compound (normally doubling the previous dose) until it is either fatal or the animal suffers substantial weight loss or has become distressed). The dose for the compound of Example 1 was 60 mg/kg, for the compound of Example 2 was 120 mg/kg and for the compound of Example 3 was 270 mg/kg. The control group was untreated. H33342 was then injected intravenously at 40 mg/kg to the treated mice 4, 8 and 24 hours after administration of a compound of the present invention and after 24 hours to the untreated control mice. After one minute, each mouse was killed by cervical dislocation and the tumours were removed. Following this procedure the H33342 is confined to the nuclei of cells adjacent to the blood vessels. The tumours were wrapped in aluminium foil and immediately snap-frozen in liquid nitrogen and then stored at −80° C. until required for sectioning. For assessment of tumour vasculature, 10 μm-thick sections were cut using a cryostat (Leica, CM 1100, Scientific Laboratory Supplies, UK) with intervals between sections of 200 μm. The sections were placed on glass slides and allowed to air dry before viewing under a light microscope using UV illumination. Functional vascular volume was quantified using a point scoring system as described previously (Cowen S. E., Bibby M. C., Double J. A., Characterisation of the vasculature within a murine adenocarcinoma growing in different sites to evaluate the potential of vascular therapies, Acta Oncologica, 1995, 34, 357-60). Using a graticule with 22×16 grids, points crossing areas of fluorescence were counted as positive points. The total number of positive points was used to calculate the percentage of functional vasculature. Five sections per tumour and 5 fields per section were examined for tumours.
The results of test (c) are shown in FIG. 1, which is a graph showing relative percentage of control functional vasculature in the DLD-1 tumours after treatment with the compounds of Examples 1, 2 and 3 at doses of 60, 120 and 270 mg/kg respectively. Each point plotted in the graph of FIG. 1 represents the mean percentage of control functional vasculature for each time-point.

The nature of data set [4]: Maximum tolerated dose by dose escalation in mice. Conditions: mouse, in vivo, ip, single intraperitoneal dose, read-out: dose believed to be the maximum tolerated dose.

What is called melting point is the temperature, or range, at which the solid turns liquid.

As to `COc1ccc2c(c1)COCc1cc(OC)c(OC)c(OC)c1-2` [Example 1, 1,2,3,9-Tetramethoxy-5,7-dihydrodibenzo[c,e]oxepine], the IC50 in data set [1] amounted to 110 nM; in data set [2] it was 5700 nM. Further, the “functional vasculature in DLD-1 tumours compared to control tumours” value in data set [3] (8 hours post-treatment) and in data set [3] (24 hours post-treatment) was “significant decrease” throughout. In data set [4], the MTD is 60 mg/kg.

As for `COc1cc2c(c(OC)c1OC)-c1cc3c(cc1COC2)OCO3` [Example 2, 5,7-Dihydro-1,2,3-trimethoxybenzo[d][1,3]dioxolo[4,5-h][2]benzoxepin], the “functional vasculature in DLD-1 tumours compared to control tumours” value in data set [3] (4 hours post-treatment) is given as “no difference”; in data set [3] (8 hours post-treatment) it was “no difference”; in data set [3] (24 hours post-treatment), “significant functional vasculature decrease”. In addition, the MTD in data set [4] amounted to 120 mg/kg.

With `COc1ccc2c(c1O)COCc1cc(OC)c(OC)c(OC)c1-2` [Example 3, 3,9,10,11-Tetramethoxy-5,7-dihydrodibenzo[c,e]oxepin-4-ol], the figures for the IC50 in data set [1] and in data set [2] were 33.9 nM and 800 nM, respectively. In addition, the “functional vasculature in DLD-1 tumours compared to control tumours” value in data set [3] (4 hours post-treatment) is “dramatically decreased”; in data set [3] (8 hours post-treatment), “restored back to above control level”; in data set [3] (24 hours post-treatment), “significantly decreased”. In addition, the MTD in data set [4] is 270 mg/kg.

`COc1ccc2c(c1OP(=O)([O][Na+])[O][Na+])COCc1cc(OC)c(OC)c(OC)c1-2` [Example 4, 3,9,10,11-Tetramethoxy-5,7-dihydrodibenzo[c,e]oxepin-4-yl disodium phosphate]: the IC50 turned out to be 0.23 nM in data set [1] and 700 nM in data set [2].

Turning to `COc1cc2c(c(OC)c1OC)-c1ccc([N+](=O)[O-])cc1COC2` [Example 5, 1,2,3-Trimethoxy-9-nitro-5,7-dihydrodibenzo[c,e]oxepine], the melting point was 161 °C.

For the compound `COc1cc2c(c(OC)c1OC)-c1ccc(N)cc1COC2` [Example 6, 9,10,11-Trimethoxy-5,7-dihydrodibenzo[c,e]oxepin-3-amine], the melting point came out at 145 °C.

The compound `COc1ccc2c(c1OS(=O)(=O)C(F)(F)F)COCc1cc(OC)c(OC)c(OC)c1-2` [Example 7, 3,9,10,11-Tetramethoxy-5,7-dihydrodibenzo[c,e]oxepin-4-yl trifluoromethanesulfonate] registered a melting point of 164 °C.

As for `COc1ccc2c(c1N)COCc1cc(OC)c(OC)c(OC)c1-2` [Example 9, 3,9,10,11-Tetramethoxy-5,7-dihydrodibenzo[c,e]oxepin-4-amine], the IC50 is 2 nM in data set [1] and 900 nM in data set [2].

The record behind these values is US8178578B2, “Chemical compounds” (The University of Manchester, priority 2006, dated 2012).
